The values that follow come from paper PMC8194939, “Investigation on the characteristics and mechanisms of ACE inhibitory peptides by a thorough analysis of all 8000 tripeptides via binding free energy calculation” (Food Science & Nutrition, 2021).

Where a SMILES comes first, the peptide text is derived from it.

The target of this test is T1, ACE from rabbit lung (Oryctolagus cuniculus, UniProt P12822).
T1 sequence (P12822 34-1310): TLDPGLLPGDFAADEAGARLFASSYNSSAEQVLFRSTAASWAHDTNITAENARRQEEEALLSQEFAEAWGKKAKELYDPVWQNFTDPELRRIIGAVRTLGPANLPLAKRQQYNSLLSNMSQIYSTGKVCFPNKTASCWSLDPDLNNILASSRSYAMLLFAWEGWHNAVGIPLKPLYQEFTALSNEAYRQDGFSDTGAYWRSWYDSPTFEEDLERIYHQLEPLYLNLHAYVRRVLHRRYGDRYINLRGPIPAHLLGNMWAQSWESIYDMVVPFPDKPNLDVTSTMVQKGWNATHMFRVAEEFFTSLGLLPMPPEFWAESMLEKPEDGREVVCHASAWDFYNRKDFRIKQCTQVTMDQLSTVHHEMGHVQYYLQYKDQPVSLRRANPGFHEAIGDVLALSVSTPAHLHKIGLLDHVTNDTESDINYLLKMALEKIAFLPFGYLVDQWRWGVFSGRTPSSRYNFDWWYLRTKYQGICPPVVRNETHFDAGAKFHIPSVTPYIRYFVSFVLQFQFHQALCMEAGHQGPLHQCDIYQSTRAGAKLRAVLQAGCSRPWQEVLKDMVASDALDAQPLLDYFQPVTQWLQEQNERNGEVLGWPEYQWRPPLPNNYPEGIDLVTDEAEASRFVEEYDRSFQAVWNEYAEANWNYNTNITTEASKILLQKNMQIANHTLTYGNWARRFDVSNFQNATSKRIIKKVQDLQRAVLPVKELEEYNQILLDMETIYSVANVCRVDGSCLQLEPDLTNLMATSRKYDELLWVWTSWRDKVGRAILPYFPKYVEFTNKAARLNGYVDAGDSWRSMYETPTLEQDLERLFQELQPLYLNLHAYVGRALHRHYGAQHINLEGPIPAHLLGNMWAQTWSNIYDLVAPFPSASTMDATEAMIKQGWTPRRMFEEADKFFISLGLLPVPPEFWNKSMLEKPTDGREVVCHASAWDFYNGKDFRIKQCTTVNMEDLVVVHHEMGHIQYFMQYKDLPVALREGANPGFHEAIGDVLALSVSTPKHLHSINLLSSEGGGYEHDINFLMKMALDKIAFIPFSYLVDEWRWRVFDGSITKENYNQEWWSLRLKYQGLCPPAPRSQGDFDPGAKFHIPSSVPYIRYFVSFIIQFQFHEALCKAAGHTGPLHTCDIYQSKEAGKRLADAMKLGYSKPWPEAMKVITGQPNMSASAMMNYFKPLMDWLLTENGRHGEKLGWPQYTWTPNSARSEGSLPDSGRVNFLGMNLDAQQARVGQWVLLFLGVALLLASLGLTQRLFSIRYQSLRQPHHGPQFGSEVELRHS
Briefly: Assay of ACE inhibitory activity (HHL substrate, RP-HPLC of hippuric acid).

Procedure: ACE from rabbit lung and hippuryl‐histidyl‐leucine (HHL) were sourced from Sigma Chemical Co. (St. Louis).
Briefly, 20 μL of inhibitory peptides at different concentrations and 20 μL of 5 mM HHL solution were preincubated at 37°C for 5 min in 90 μL of buffer A (50 mM HEPES, 300 mM NaCl, pH 8.3). Next, 20 μL of ACE solution (0.04 U/mL) was added to trigger the reaction. After incubation at 37°C for 1 hr, the reaction was terminated by adding 50 μL of 1 M HCl. Next, 10 μL of the mixture was separated through RP‐HPLC (e2679, Waters) using an XBridge C18 column (4.6 mm × 150 mm, 5 μm, Waters). […] Hippuric acid was monitored at 228 nm. Triplicate tests were performed for each sample. […] For comparative purposes, the IC50 value of captopril was obtained using this methodology.

In general, IC50 refers to the midpoint of a concentration-inhibition curve. A higher IC50 goes with a need for much substance. Molecule `N=C(N)NCCC[C@H](NC(=O)[C@@H](N)Cc1c[nH]c2ccccc12)C(=O)N[C@@H](Cc1ccccc1)C(=O)O` [WRF] (H-Trp-Arg-Phe-OH) displayed an IC50 of 21.8 ± 2.5 µM.
`N[C@@H](Cc1c[nH]c2ccccc12)C(=O)N[C@@H](Cc1c[nH]c2ccccc12)C(=O)N[C@@H](Cc1c[nH]c2ccccc12)C(=O)O` [WWW] (H-Trp-Trp-Trp-OH): the IC50 was 7.3 ± 2.11 µM.
The result for `N[C@@H](CC(=O)O)C(=O)NCC(=O)NCC(=O)O` [DGG] (H-Asp-Gly-Gly-OH) reads over 5000 µM.
The result for `NCCCC[C@H](N)C(=O)N[C@@H](Cc1ccc(O)cc1)C(=O)N[C@@H](Cc1ccc(O)cc1)C(=O)O` [KYY] (H-Lys-Tyr-Tyr-OH) reads 20.5 ± 4.05 µM; that for `NCC(=O)NCC(=O)NCC(=O)O` [GGG] (H-Gly-Gly-Gly-OH), over 5000 µM; that for `NC(=O)CC[C@H](NC(=O)[C@@H](N)Cc1c[nH]c2ccccc12)C(=O)N[C@@H](Cc1c[nH]c2ccccc12)C(=O)O` [WQW] (H-Trp-Gln-Trp-OH), 11.8 ± 1.79 µM.
On to `N=C(N)NCCC[C@H](NC(=O)[C@@H](N)Cc1c[nH]c2ccccc12)C(=O)N[C@@H](Cc1ccc(O)cc1)C(=O)O` [WRY] (H-Trp-Arg-Tyr-OH), for which half-maximal inhibition (IC50) was put at 5.86 ± 0.73 µM.
